Reference: paper PMC13206458, “A Synergistic Inhibitor Development Strategy Against Human UDP‐Galactose‐4‐Epimerase” (Angewandte Chemie (International Ed. in English), 2026)
Blank lines part the entries; values can stand above or below the compound they belong to.

What was measured:
[1] = biological target: T1, GalE (Homo sapiens, UniProt Q14376); assay: Covalent fragment site identification by tryptic digest LCMS/MS; parameters: His tag (3C-cleavable; concluded from HisTrap purification and 3C cleavage) (cleaved yes); made in house; host or cells: Sf21 insect cells (baculovirus, described before) or E. coli BL21 (DE3)
T1 sequence (Q14376 1-348): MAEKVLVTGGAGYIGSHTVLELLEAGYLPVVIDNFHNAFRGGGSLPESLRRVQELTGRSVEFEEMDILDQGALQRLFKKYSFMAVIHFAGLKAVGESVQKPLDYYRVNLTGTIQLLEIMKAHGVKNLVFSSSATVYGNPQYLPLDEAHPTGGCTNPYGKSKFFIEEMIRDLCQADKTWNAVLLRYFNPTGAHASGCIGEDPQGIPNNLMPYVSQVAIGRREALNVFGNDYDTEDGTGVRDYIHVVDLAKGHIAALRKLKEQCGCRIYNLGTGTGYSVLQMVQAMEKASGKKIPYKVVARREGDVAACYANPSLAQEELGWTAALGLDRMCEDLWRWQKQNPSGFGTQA
Source text: • Options: Optimisation of hydrogens, keep tight waters (those that make 3 or more H-bonds), optimise His, Pro, Asn, Gln, and Cys side chains.
• Options: Optimisation of formal and partial charges, protonation states (at pH 7.5) and hydrogen placement.
• Identification of the binding pocket and building of receptor maps around X0213 using the ICM virtual screening function.
• Docking of libraries from SDFiles using the ICM virtual ligand screening function, selecting a thoroughness score of 3.
• All other docking parameters kept as default, and no additional triaging was […]
WBC01 and WBC02 Covalent Fragment Site Identification Mass Spectrometry Recombinant human GalE (10 µM GalE, 25 mM HEPES, 50 mM NaCl) was first incubated with either WBC01 or WBC02 (25, 50, or 100 µM) or matched 1% (V/V) DMSO control for 24 hours at room temperature. Samples were separated by SDS-PAGE gel, stained with colloidal Coomassie InstantBlue (Abcam, Cambridge, UK), bands corresponding to GalE were excised, reduced in 10 mM DTT (in water) for 20 minutes at 55 °C, alkylated with 55 mM iodoacetamide (IAA) in the same buffer at room temperature for 20 minutes, and digested overnight using 100 ng trypsin in 10 mM ammonium bicarbonate at 37 °C (Promega, Wisconsin, USA) before being acidified with to 0.1% Trifluoracetic acid (TFA).
On an Ultimate 3000 nanoRSLC HPLC (Thermo Scientific, Massachusetts, USA), 1-10 µL of protein sample was loaded on a 20 mm x 75 µm Pepmap C18 trap column (Thermo Scientific) prior to elution via a 50 cm x 75 µm EasySpray C18 column into a Lumos Tribrid Orbitrap mass spectrometer (Thermo Scientific). A 45 minute gradient of 6% - 40% B was used followed by washing and re-equilibration (A= 2% ACN, 5% DMSO, 0.1% formic acid; B= 80% ACN, 5% DMSO, 0.1% formic acid). […]
bottom plate from a 10 mM source in DMSO. […] The plate was sealed, centrifuged (1 min, 1000 rpm), incubated at 20 °C for 6 h, and 15 µL aliquots were subsequently removed and analyzed by intact protein LC-MS to confirm modification. […]

[2] = biological target: T1, GalE; assay: Covalent fragment kinetics assay by intact-protein LCMS; format: binding; parameters: His tag (3C-cleavable; concluded from HisTrap purification and 3C cleavage) (cleaved yes); made in house; host or cells: Sf21 insect cells (baculovirus, described before) or E. coli BL21 (DE3)
[3] = biological target: T1, GalE; assay: Intact-protein LCMS covalent modification; format: binding; parameters: His tag (3C-cleavable; concluded from HisTrap purification and 3C cleavage) (cleaved yes); made in house; host or cells: Sf21 insect cells (baculovirus, described before) or E. coli BL21 (DE3); details: 0.5 µM GalE, 100 µM compound, 24 h incubation, one experiment
Source text: To advance GalE inhibitors towards a suitable probe, we next evaluated available crystal structures to identify nearby nucleophilic residues for developing covalent inhibitors (Figure 3A). Three residues close to the ligand binding pocket were identified as potential modification points for commonly employed covalent warheads, Tyr211, Tyr230 and Lys295 (Figure 3B). We screened a library of 347 sulfonyl fluoride‐containing fragments, reported to target Tyr/Lys residues (Figure 3C). Screening was performed by incubating fragments at 100 µM with 0.5 µM purified GalE for 24 h. Protein modification was then determined by intact‐protein LCMS. In this experiment, we deliberately omitted the addition of the NAD cofactor to keep the experimental conditions simple and potentially allow for the sampling of a larger conformational ensemble in GalE. […]
Buffer AGX1_B over 17 min.
A 5 µL sample was injected […]
The flow rate and temperature were set to 0.5 mL/min and 70 °C, respectively. […] The obtained spectra were analysed and deconvoluted with the MassHunter BioConfirm software (Agilent Technologies, Cheshire, UK). […] The spectra were then exported and analysed using software developed internally at GSK to determine relative % labelling. […]
controls were included. Samples were analysed by intact-LCMS as described above and the relative % protein modification determined. […]

[4] = biological target: T1, GalE; assay: WBC11 alkyne protein labelling assay (CuAAC, streptavidin blot), GalE; details: 95°C for 5 min in sodium dodecyl sulphate loading buffer
Description: We then used WBC11 to trace covalent GalE modification (Figure 5D). […] The traceable nature of WBC11 allowed us to assess the stability of the sulfonyl ester bond to Tyr211.
Recombinant samples of either GalE or AGX1 (0.5 µg enzyme in 25 mM HEPES pH
7.5, 50 mM NaCl, 200 µM NAD) were incubated with either 10 µM WBC11 alkyne, 100
final conditions) for 1 hour at room temperature in 27 µL volume. Samples then
underwent copper-catalyzed azide-alkyne cycloaddition (CuAAC) with 100 µM biotin
picolyl azide (Sigma-Aldrich), 600 µM copper(II) sulfate, 1.2 mM 2-(4-((Bis((1-(tert-
butyl)-1H-1,2,3-triazol-4-yl)methyl)amino)methyl)-1H-1,2,3-triazol-1-yl)acetic acid
(BTTAA), 5 mM sodium ascorbate, and 5 mM amminoguanidine hydrochloride for 30
concentration. Stability of the covalent bond was assessed by incubating the GalE-
WBC11 conjugate for 5 minutes at 95 °C. Samples were run on an 4%-20% SDS
PAGE gel (CriterionTM TGXTM Precast Midi Protein Gel, Bio-Rad) for 70 mins at 160V.
Western blot transfer to 0.2 µm nitrocellulose membrane (Bio-Rad) was done with the
Transblot-Blot Turbo Transfer System (Bio-Rad) at the HIGH MW protocol (10 mins,
2.5 A, up to 25 V). For total protein staining, membrane was incubated with Revert 700
Total Protein stain (LI-COR) for 5 mins. Membrane was blocked for 1 hour with […]
analysed on Image Studio (version 6.0, LI-COR). […]

[5] = biological target: T2, AGX1 (Homo sapiens, UniProt Q16222); assay: WBC11 alkyne protein labelling assay (CuAAC, streptavidin blot), AGX1 control; format: binding; parameters: made in house; details: 10 µM WBC11
T2 sequence (Q16222 1-505 isoform Q16222-2, species assumed): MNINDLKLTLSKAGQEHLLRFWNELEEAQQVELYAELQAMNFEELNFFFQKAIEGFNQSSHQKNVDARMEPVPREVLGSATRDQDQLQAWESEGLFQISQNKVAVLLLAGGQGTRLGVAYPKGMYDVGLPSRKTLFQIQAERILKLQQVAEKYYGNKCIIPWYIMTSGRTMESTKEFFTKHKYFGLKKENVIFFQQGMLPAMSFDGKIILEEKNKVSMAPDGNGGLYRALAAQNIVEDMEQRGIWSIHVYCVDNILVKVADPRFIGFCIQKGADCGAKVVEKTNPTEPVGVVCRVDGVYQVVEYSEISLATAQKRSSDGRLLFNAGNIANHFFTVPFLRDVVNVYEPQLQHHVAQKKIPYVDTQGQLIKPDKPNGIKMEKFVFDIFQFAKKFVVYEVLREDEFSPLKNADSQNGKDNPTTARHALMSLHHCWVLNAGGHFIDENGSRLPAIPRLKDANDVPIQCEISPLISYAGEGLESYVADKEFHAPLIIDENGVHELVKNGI
Description: dependent analysis (DDA).
methionine were allowed. […] (293.30
WBC11 Alkyne protein labelling assay
minutes at room temperature.
Membrane was blocked for 1 hour with
Each total protein signal value was
normalisation factor for each band.
normalised densitometry score.

[6] = biological target: T1, GalE; assay: GalE epimerisation assay (HPAEC, UDP-Gal to UDP-Glc), non-covalent concentration-response
Description: The GalE enzyme assay uses high‐performance anion exchange chromatography (HPAEC) to determine the conversion of UDP‐Gal to UDP‐Glc (Figure S3A) [28].
For in vitro epimerisation, 20 µL reactions were performed in 25 mM HEPES, pH 7.5,
50 mM NaCl, 200 µM NAD with 100 µM UDP-Gal and 5 nM GalE. Reactions were run
minute. Samples were cooled to 4 °C and analysed by high performance liquid
chromatography (HPLC) using an ArcPremier Waters instrument with a Dionex
CarboPac PA1 IC (2mm x 150 mM) column (Waters, Wilmslow, UK). Injection volume
was 5 µL. Eluent A was 1 M NaOAc/1 mM NaOH (Sigma-Aldrich, St. Louis, USA).
The % conversion for each assay was determined by
the relative difference in peak area between UDP-Gal and UDP-Glc peaks. Kinetics
factors (KM and kcat) were determined by non-linear curve fitting using Graphpad Prism
9.0 GraphPad Software. Calculations used a modified version of the Michaelis-Menten
𝜈(𝐺𝐴𝐿𝐸) = [𝐺𝐴𝐿𝐸]! ∙ 𝑘#$! ∙[𝑈𝐷𝑃 − 𝐺𝑎𝑙]
Equation 1: Michaelis-Menten Equation as used in GraphPad.
Where 𝜈 is the initial rate in µM/s.
𝐾%is the Michaelis-Menten constant in µM.
[𝐺𝐴𝐿𝐸]! is the concentration of GalE in µM in the assay.
𝑘#$!is the turnover number in s-1.
[𝑈𝐷𝑃 − 𝐺𝑎𝑙] is the concentration of UDP-Gal at the start of the reaction in µM.
Non-Covalent Compound Concentration-Response Assay […]
only-controls and activity assessed by epimerisation assay.

[7] = biological target: T1, GalE; assay: Isothermal titration calorimetry (ITC); format: binding; parameters: His tag (3C-cleavable; concluded from HisTrap purification and 3C cleavage) (cleaved yes); made in house; host or cells: Sf21 insect cells (baculovirus, described before) or E. coli BL21 (DE3); details: 25 °C, one experiment, approximate/estimated
[8] = biological target: T1, GalE; assay: Differential scanning fluorimetry (DSF) thermal shift assay; format: binding; parameters: His tag (3C-cleavable; concluded from HisTrap purification and 3C cleavage) (cleaved yes); made in house; host or cells: Sf21 insect cells (baculovirus, described before) or E. coli BL21 (DE3); details: relative to DMSO controls, three technical replicates
[9] = biological target: T3, MGAT2 (Homo sapiens, UniProt Q10469); assay: MGAT2 inhibition assay; details: 400 µM WBX09, multiple enzyme concentrations
T3 sequence (Q10469 1-447): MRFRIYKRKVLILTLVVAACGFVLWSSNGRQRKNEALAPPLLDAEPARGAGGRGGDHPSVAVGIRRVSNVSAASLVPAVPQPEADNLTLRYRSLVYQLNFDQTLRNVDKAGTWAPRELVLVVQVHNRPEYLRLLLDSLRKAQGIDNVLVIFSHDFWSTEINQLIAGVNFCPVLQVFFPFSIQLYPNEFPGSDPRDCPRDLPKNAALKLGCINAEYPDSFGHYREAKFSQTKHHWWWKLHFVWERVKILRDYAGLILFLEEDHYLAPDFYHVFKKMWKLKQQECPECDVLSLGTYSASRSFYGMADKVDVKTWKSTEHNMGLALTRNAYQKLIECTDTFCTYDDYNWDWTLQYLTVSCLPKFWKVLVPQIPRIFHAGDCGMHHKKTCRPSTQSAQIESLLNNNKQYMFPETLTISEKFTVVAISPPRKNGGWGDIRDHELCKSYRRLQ
Description: MGAT2 was recombinantly expressed before.[13] Reaction mixtures were prepared by
an equivalent volume of DMSO, in a total of 10 μL reaction buffer (50 mM Tris pH 6.8,
with 5 mM MnCl2, 0.1% BSA and 0.1% Triton-X100). Reactions were carried out at
centrifuged at for 30 min at 14,000 g at 4°C to precipitate proteins. Of each sample, 9
µL of the supernatant was injected onto an Acquity H-Class PLUS QDa UPLC-MS
(Waters) equipped with an ACQUITY UPLC® Glycan BEH Amide column (130 Å, 1.7
μm, 2.1 x 100 mm, Waters). Samples were run at flow rate of 0.35 mL/min using Buffer
MGAT2_A (10 mM Ammonium formate at pH 4.5); Buffer MGAT2_B (10 mM
The turnover of the procainamide acceptor glycan into the
of the acceptor substrate and the product glycan.

[10] = biological target: T2, AGX1; assay: AGX1 inhibition assay; details: 400 µM WBX09, multiple enzyme concentrations
Description: Recombinant AGX1 was expressed before.[14] Commercial N-Acetyl-D-glucosamine 1-
phosphate disodium salt (GlcNAc-1-P, Sigma Aldrich) was used as a substrate to
absorbance-based assay. Reactions were carried out using 0.5 mM GlcNAc-1-P, 1
either 5 nM, 10 nM or 20 nM AGX1 in a total volume of 20 µL reaction buffer (5 mM
Reactions were stopped by the addit ion of an equal volume of ice-cold acetonitrile,
followed by centrifugation at 16200 g, 4 °C for 30 min. The supernatant of each
reaction was analysed by injecting 9 µL into Acquity H -Class PLUS QDa UPLC -MS
(Waters, Milford, USA) equipped with an ACQUITY UPLC® Glycan BEH Amide
column (130 Å, 1.7 μ m, 2.1 x 100 mm, Waters). Samples were run a t a flow rate of
0.35 mL/min, column temperature at 50 °C and sample manager (sample tray) at 10
°C using Buffer AGX1_ A (10 mM ammonium formate at pH 4.5); Buffer AGX1_ B (10
Product formation was monitored by absorption at 260
nm and further confirmed by mass detection in negative mode. Turnover (%) was
determined by integration of the product’s UV peaks and plotting it against a standard
curve of 0-2.5 mM UDP-GlcNAc (Sigma- Aldrich) produced by serial dilution in final

[11] = Hepatocyte stability assay; format: in vitro ADME; details: hepatocytes, preliminary DMPK
[12] = GalE incubated with 100, 50 or 25 µM compound, tryptic digest MS

Structure (SMILES): O=S(=O)(F)c1cccc(-c2cc(O)c3ccccc3n2)c1 [WBC01]
residue modified [1, 12]: Tyr211

Structure (SMILES): O=C(NCc1ccc(Cl)c(Cl)c1)c1cccc(S(=O)(=O)F)c1 [WBC02]
residue modified [1, 12]: Tyr211

Structure (SMILES): Cc1cc(NC(=O)NCc2cccc(S(=O)(=O)F)c2)no1 [WBC03]
kinact/KI [2]: 11.7 M⁻¹ s⁻¹ | residue modified ([1]; 200-fold excess of compound, tryptic digest LCMS/MS): only Tyr211 | protein modification % [3]: > 95%

Structure (SMILES): C#Cc1cc(CNC(=O)Nc2cc(C3CCC3)on2)cc(S(=O)(=O)F)c1 [WBC11]
intensity of GalE-WBC11 adduct after heating (stability of covalent bond) [4]: did not change | biotin tagging of AGX1 control protein [5]: band of lower intensity

IC50 [6]: 115 µM | Kd [7]: 9 ± 6 µM | ΔTm [8]: 3.1 °C
Structure (SMILES): Cc1cc(NC(=O)NCCC(=O)Nc2ccncc2)no1 [WBX04]

effect on MGAT2 activity [9]: No inhibition | effect on AGX1 activity [10]: No inhibition | half-life [11]: 16.4 min | hepatocyte CLint ([11]; read-out: intrinsic clearance): 42.4 µL/min/1e6 cells
Structure (SMILES): O=C(CCNC(=O)Nc1cc(C2CCC2)on1)Nc1ccncc1 [WBX09]

Kd [7]: ~468 µM
Structure (SMILES): CCNC(=O)Nc1cc(C)on1 [X0213]
